This is an account of results in publication doi:10.1101/2021.06.16.448769v1 (bioRxiv, 2021).

By Kd is commonly meant the free concentration of one partner at which half of the binding sites on the other are occupied at equilibrium, for simple one-to-one binding. Lower therefore signals higher affinity. Usually fraction remaining stands for the share of the starting amount still present when the sample was taken. Low values mean more turnover, high ones less turnover. One may read the clearance as a measure of how efficiently the substance is removed, as volume per time. A low value points to inefficient removal. For orientation: half-life means how long it takes for the measured level to halve. Read a low half-life as rapid decline.

Bridge positions count the residues as written; N and C are the ends. Ends that are not written are not given here. Peptide text beside a SMILES is read from it. * marks the point of attachment. Palmitoyl = CCCCCCCCCCCCCCCC(=O)*

In one series the target is human C5 (Homo sapiens, UniProt P01031). Nature of the series: SPR multi-cycle kinetics, binding to human C5.
Sequence of human C5 (P01031 19-673 limits assumed): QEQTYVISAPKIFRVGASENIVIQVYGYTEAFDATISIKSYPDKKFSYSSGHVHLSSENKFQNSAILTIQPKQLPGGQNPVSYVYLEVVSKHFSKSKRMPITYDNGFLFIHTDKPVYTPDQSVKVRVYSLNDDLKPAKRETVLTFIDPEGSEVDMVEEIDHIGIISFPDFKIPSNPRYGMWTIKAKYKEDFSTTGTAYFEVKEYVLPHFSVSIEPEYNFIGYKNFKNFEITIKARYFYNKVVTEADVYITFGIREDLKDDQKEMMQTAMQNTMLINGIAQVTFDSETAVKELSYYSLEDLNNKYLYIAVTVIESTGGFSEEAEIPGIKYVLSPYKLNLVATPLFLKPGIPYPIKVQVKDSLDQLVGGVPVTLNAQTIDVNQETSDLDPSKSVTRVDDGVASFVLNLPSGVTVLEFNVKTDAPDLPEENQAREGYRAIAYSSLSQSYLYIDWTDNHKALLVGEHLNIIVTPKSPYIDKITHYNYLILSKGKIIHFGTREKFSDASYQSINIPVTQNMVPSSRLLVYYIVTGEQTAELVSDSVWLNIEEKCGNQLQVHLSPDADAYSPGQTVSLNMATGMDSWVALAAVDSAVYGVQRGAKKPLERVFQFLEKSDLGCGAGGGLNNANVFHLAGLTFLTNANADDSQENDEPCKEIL
Sequence of human C5 (P01031 678-1676 limits assumed): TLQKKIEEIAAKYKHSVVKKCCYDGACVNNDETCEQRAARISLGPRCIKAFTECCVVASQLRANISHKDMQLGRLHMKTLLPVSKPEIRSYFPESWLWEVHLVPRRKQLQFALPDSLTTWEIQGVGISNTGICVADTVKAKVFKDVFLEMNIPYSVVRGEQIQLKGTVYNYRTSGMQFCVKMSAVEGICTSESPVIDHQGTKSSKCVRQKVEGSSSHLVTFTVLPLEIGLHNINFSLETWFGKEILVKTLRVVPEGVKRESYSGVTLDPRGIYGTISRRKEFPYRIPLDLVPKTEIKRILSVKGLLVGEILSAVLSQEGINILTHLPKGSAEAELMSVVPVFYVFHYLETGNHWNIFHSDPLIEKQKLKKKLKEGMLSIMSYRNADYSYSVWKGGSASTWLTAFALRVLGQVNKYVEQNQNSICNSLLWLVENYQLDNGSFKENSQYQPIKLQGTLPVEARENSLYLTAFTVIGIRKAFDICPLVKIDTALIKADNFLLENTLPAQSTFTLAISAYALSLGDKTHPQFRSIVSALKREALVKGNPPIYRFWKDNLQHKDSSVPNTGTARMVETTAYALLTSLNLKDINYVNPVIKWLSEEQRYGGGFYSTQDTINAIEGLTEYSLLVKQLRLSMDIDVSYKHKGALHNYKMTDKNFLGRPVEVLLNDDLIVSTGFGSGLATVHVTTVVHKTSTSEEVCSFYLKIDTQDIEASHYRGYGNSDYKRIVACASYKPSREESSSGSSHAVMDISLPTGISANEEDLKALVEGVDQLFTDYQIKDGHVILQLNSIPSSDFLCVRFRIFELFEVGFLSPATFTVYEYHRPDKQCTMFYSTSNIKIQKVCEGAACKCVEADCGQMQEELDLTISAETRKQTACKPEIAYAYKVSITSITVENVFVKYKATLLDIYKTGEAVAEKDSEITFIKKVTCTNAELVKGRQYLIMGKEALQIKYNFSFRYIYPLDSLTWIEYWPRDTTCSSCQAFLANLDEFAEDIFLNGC
For series [1], the system named is C5 activation (C5b-6), alternative pathway. As to the kind of experiment: Alternative pathway. Format: biochemical.
Series [2] has as its system C5 activation (C5b-6), classical pathway. As to the kind of experiment: Classical pathway. Format: biochemical.
Series [3] is described as follows: Plasma stability, human plasma. Format: in vitro ADME. The following applies: plasma (lithium heparin).
The nature of series [4]: Plasma stability, mouse plasma. The conditions noted are these: plasma (lithium heparin). In kind it is in vitro ADME.
Series [5] is described as follows: Plasma stability, rat plasma. Format: in vitro ADME. The following applies: plasma (lithium heparin).
Another series deals with rat C5 protein (Rattus norvegicus, UniProt P08650). As to the kind of experiment: SPR single-cycle kinetics, binding to rat C5.
Sequence of rat C5 protein (P08650 19-1681): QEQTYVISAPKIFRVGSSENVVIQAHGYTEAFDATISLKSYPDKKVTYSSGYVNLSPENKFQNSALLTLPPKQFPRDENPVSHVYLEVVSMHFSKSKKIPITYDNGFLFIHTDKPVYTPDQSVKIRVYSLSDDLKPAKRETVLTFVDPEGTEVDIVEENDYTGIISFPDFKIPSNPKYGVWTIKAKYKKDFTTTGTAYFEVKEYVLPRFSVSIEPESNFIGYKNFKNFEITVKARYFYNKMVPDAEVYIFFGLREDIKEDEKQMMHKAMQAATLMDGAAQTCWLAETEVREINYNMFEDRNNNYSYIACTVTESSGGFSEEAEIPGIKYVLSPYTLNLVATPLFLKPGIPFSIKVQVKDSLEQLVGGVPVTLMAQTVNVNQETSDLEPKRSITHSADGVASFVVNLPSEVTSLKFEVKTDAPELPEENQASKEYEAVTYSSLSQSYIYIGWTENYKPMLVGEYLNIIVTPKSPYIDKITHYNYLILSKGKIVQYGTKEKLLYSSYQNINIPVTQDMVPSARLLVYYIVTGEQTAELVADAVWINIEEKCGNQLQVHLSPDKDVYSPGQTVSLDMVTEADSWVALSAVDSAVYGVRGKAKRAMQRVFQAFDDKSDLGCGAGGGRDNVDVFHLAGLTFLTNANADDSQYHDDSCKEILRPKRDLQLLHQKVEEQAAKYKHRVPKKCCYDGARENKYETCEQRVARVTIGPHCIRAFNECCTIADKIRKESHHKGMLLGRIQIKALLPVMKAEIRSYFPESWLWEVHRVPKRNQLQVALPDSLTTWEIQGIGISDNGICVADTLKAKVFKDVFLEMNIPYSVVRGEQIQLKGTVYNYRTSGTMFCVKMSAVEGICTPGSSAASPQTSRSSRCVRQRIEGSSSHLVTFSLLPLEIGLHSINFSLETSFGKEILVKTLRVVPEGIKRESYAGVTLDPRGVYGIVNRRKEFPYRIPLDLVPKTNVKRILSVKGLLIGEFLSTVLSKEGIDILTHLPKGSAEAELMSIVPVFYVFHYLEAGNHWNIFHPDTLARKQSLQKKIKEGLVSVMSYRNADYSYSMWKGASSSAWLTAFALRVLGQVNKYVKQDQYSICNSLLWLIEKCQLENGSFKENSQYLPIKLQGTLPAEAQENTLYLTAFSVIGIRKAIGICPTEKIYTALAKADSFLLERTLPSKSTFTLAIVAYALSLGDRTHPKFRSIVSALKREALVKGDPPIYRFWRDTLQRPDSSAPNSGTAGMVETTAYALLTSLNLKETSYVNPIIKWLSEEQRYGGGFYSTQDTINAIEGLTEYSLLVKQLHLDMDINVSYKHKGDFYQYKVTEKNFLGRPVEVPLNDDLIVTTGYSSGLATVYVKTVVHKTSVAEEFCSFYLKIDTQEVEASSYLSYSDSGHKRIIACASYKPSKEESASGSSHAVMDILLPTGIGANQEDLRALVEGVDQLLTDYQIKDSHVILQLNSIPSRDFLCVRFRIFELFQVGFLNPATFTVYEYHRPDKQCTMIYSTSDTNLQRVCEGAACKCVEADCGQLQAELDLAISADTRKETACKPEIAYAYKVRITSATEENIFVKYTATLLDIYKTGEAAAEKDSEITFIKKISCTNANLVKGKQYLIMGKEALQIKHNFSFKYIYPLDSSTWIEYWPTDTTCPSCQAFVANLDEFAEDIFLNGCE
Series [6] can be described thus: Plasma pharmacokinetics after intravenous bolus. Format: in vivo, Sprague Dawley rats. The following applies: male, Sprague-Dawley, rat.
The nature of another series: Solubility. Format: physicochemical. The conditions noted are these: reason for lower in vivo dose of 1 mg/kg.

Regarding `CC[C@H](C)[C@@H]1NC(=O)[C@H](C)NC(=O)[C@H](C(C)C)NC(=O)CNC(=O)[C@@H]2CSSC[C@@H](C(=O)NCC(=O)N[C@@H](Cc3c[nH]cn3)C(=O)N[C@@H](Cc3ccccc3)C(=O)N[C@@H](CC(C)C)C(=O)N[C@@H](CC(N)=O)C(=O)N[C@@H](CO)C(=O)NCC(=O)N3CCC[C@H]3C(=O)N[C@@H](CC(N)=O)C(=O)N[C@H](C(=O)N[C@@H](CO)C(=O)N3CCC[C@H]3C(=O)N[C@@H](Cc3ccc(O)cc3)C(=O)N[C@H](C(=O)N[C@@H](CO)C(=O)N[C@H](C(=O)O)[C@@H](C)O)C(C)C)[C@@H](C)CC)NC(=O)CNC(=O)[C@H](Cc3c[nH]c4ccccc34)NC(=O)[C@H](CCCNC(=N)N)NC(=O)CNC(=O)[C@H](CSSC[C@H](NC(=O)[C@@H](N)[C@@H](C)O)C(=O)N3CCC[C@H]3C(=O)N[C@@H](CCC(=O)O)C(=O)NCC(=O)N[C@@H](Cc3c[nH]c4ccccc34)C(=O)N[C@@H](CO)C(=O)N[C@@H](CCC(=O)O)C(=O)N2)NC(=O)[C@H](CCC(=O)O)NC(=O)[C@H](Cc2ccc(O)cc2)NC(=O)CNC(=O)[C@H](Cc2ccc(O)cc2)NC1=O` [K92chemFE] (H-TCPEGWSECGVAIYGYECGRWGCGHFLNSGPNISPYVST-OH; disulfide 2-18, 9-23; N-terminus assumed), at human C5 (mean KD, SPR multi-cycle kinetics, mean of n=3), the Kd came out at 0.41 nM. In series [1] (Figure 6 data, n=3 replicates), the “Alternative pathway ELISA Emax” value is reported as 27%. In series [2], the “effect in CP ELISA (in words)” value is reported as “no effect”.
For the molecule `CSCC[C@@H]1NC(=O)[C@@H]2CCCN2C(=O)[C@@H](NC(=O)[C@@H]2CSSC[C@H](NC(=O)[C@@H](N)CO)C(=O)N3CCC[C@H]3C(=O)N[C@@H](CC(=O)O)C(=O)NCC(=O)N[C@@H](Cc3ccccc3)C(=O)N[C@@H](CO)C(=O)N[C@@H](Cc3ccc(O)cc3)C(=O)N[C@@H](CCCNC(=N)N)C(=O)N[C@@H](CO)C(=O)N[C@@H](Cc3c[nH]c4ccccc34)C(=O)N[C@@H](CC(=O)O)C(=O)N[C@@H](CC(=O)O)C(=O)N[C@@H](Cc3ccccc3)C(=O)N2)CSSC[C@@H](C(=O)N[C@@H](CC(C)C)C(=O)N[C@@H](C)C(=O)N2CCC[C@H]2C(=O)N[C@@H](CCCNC(=N)N)C(=O)N[C@@H](CC(N)=O)C(=O)O)NC(=O)[C@H](CCCNC(=N)N)NC(=O)CNC(=O)[C@H](C(C)C)NC1=O` [K149chemFE] (H-SCPDGFSYRSWDDFCCPMVGRCLAPRN-OH; disulfide 2-15, 16-22 (inferred); N-terminus assumed), the “binding to C5 (in words)” value on human C5 (peptide after reduction and capping of cysteines with iodoacetamide (IAM)) was “entirely abrogated binding”. The “effect in AP ELISA (in words)” value in [1] is given as “non-functional, silent binder of C5”. In [2], the “effect in CP ELISA (in words)” value is recorded as “non-functional, silent binder of C5”.
For “GCPPGYKSGVDCSPGSECKWGCYAVDGRRYGGYGADSGVGS-OH (disulfide 2-18, 12-22 (inferred)) [K57chemFE]”, the amount remaining at 24 h, 6.25 µg/mL stood at 76% in [3], 22% in series [4] and 56% in [5]. Besides, on rat C5 protein, the “cross reactivity with rat C5 (in words)” value is reported as “specific for human C5”. The same molecule had a clearance in series [6] (10 mg/kg) of 10.6 mL/min/kg. Moreover, the half-life in series [6] (10 mg/kg) was 17 min.
Turning to “Palmitoyl-GSSSGCPPGYKSGVDCSPGSECKWGCYAVDGRRYGGYGADSGVGS-OH (disulfide 6-22, 16-26 (inferred)) [K57chemFE-palmitoyl]”, in series [6] (1 mg/kg), the clearance was 0.8 mL/min/kg and the half-life was 96 min. Further, in “Solubility”, the “solubility (in words)” value is given as “poor solubility”. The “fold reduction in affinity for C5 relative to parent” value on human C5 (SPR, relative to unmodified parent peptide) is on record as “four-fold reduction”.
